Ends that are not written are not given here.
How the values were obtained:
[1] = tested on: parental and chemo-resistant human and murine TNBC cells and parental renal cancer cells; assay: Cytokine ELISA of culture media, chemotherapy-induced secretion; assay type: cell-based; conditions: single agent
MDA-MB-468 TNBC cells = assay: MTT cell viability, SNI-1 analogs; assay type: cell-based, human; conditions: 24 h
Experimental: FIGS. 22A-B show SNI-1 analogs enhance Adriamycin inhibition of TNBC cell growth. FIGS. 22A-B show cells treated with indicated dose of noted agent for 24 h, and their viabilities determined by MTT assay. Columns represent means of three independent experiments; bars, SE.
MDA-MB-468 TNBC cells were next treated with each of the analog in vitro as a single agent or in combination with Adriamycin in vitro.

[2] = target: T1, Flag-CARP-1 (546-580) binding with Biotin-NEMO (221-261) (Homo sapiens, UniProt Q8IX12); assay: AlphaLISA assay of CARP-1/NEMO peptide binding (HTS format); conditions: read-out: IC50, inhibition of binding of CARP-1 (546-580) with NEMO (221-261) peptide
T1 construct: Flag-tagged CARP-1 (546-580); purchased Peptides America, Fairfax, Va; host or cells: chemical synthesis
From the text: The predicted kinetics of interaction of CARP-1 (551-600; SEQ ID NO: 5) and NEMO (221-261; SEQ ID NO: 2) epitopes was further validated by utilizing respective, chemically synthesized peptides to determine their in-solution binding by SPR technology (Sekhar et al. (2019) Cancers (Basel) 11). […] On the collective basis of the data in FIG. 1, and biophysical and SPR data above, in vitro binding assays were developed utilizing chemically synthesized CARP-1 and NEMO peptides. In the first instance, CARP-1 (551-580; SEQ ID NO: 6) and NEMO (221-261; SEQ ID NO: 2) peptides were used to carry out buffer optimization and DMSO tolerance of the assay. […] Presence of 0.01% tween minimizes non-specific binding and generates higher reproducibility as noted by smaller error bars in FIG. 15A. […]
The AlphaLISA assay for high throughput screening: For screening of a library of chemical compounds, an […] assay was developed and optimized for use in 384-well format (SAMDI Tech, Chicago, Ill.). […] The assay signal (Fluorescence) was measured at 680 nm excitation and 615 nm emission wavelengths to determine assay robustness and DMSO tolerance. […] The plates were read on a Pherastar FS plate reader. […] Those wells were further analyzed to investigate the 8 compounds individually in duplicate.

NEMO (221-260) peptide = target: T2, NEMO (221-260) peptide (Homo sapiens, UniProt Q9Y6K9); assay: Surface Plasmon Resonance kinetics of CARP-1 peptide binding with NEMO peptide; conditions: SPR
T2 construct: host or cells: chemical synthesis
Experimental: Next, kinetics of CARP-1 binding with NEMO were determined by Surface Plasmon Resonance (SPR) Technology (Profacgen, Shirley, N.Y.). Briefly, CARP-1 (551-580) peptide (Amino terminal-[…]-Carboxyl terminal; SEQ ID NO: 6) was dissolved in water, and various concentrations of CARP-1 Peptide were manually printed onto the bare gold-coated (thickness 47 nm) PlexArray Nanocapture Sensor Chip (Plexera Bioscience, Seattle, Wash., US) at 40% humidity. Each concentration was printed in replicate, and each spot contained 0.2 μL of sample solution. The chip was incubated in 80% humidity at 4° C. for overnight, and rinsed with 10×PBST for 10 min, 1×PBST for 10 min, and deionized water twice for 10 min. The chip was then blocked with 5% (w/v) non-fat milk in water overnight, and washed with 10×PBST for 10 min, 1×PBST for 10 min, and deionized water twice for 10 min before being dried under a stream of nitrogen prior to use. The binding reactions with NEMO (221-260; SEQ ID NO: 7) peptide (Amino terminal-[…]-Carboxyl terminal; SEQ ID NO: 7) were performed in PBST buffer (0.01M phosphate buffered saline (0.138 M NaCl; 0.0027 M KCl), 0.05% Tween-20, pH 7.4). SPRi measurements were performed with PlexAray HT (Plexera Bioscience, Seattle, Wash., US). […] The signal changes after binding and washing (in AU) were recorded as the assay value. Selected protein-grafted regions in the SPR images were analyzed, and the average reflectivity variations of the chosen areas were plotted as a function of time. Real-time binding signals were recorded and analyzed by Data Analysis Module (DAM, Plexera Bioscience, Seattle, Wash., US). […]
Association and dissociation rate constants were calculated by numerical integration and global fitting to a 1:1 interaction model and the equation: dRU(t)/dt=kaC(R^max−RU(t))−kdRU(t), where RU(t) is the response at time t, Rmax is the maximum response, C is the concentration of analyte in solution, ka is the association rate constant, kd is the dissociation rate constant, and RU (0)=0.

T2 sequence (Q9Y6K9 222-261, one chain of several): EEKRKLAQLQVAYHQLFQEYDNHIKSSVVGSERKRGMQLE
T1 sequence (Q8IX12 546-580 limits assumed): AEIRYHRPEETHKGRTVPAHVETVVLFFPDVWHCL

Compound: O=c1[nH]cc(F)c(=O)[nH]1 [5-FU]
- levels of TNFα, IL-8, and IL-1β in the media [1]: robust increase

Compound: Cc1ccc(-n2cnnc2S(=O)(=O)CC(=O)c2ccc(O)c(O)c2)cc1 [GL-210]
- loss of cell viability in combination with Adriamycin versus Adriamycin alone (MDA-MB-468 TNBC cells): minimal reduction in cell viabilities

Compound: COc1ccc(S(=O)(=O)Nc2ccccc2C(=O)NCCc2ccccc2)cc1 [SNI-2, 2-{((4-methoxyphenyl)sulfonyl)amino}-N-(2-phenylethyl)benzamide]
- IC50 [2]: ~25 µM

Compound: Cc1ccc(-n2ccnc2S(=O)(=O)CC(=O)c2ccc(O)c(O)c2)cc1 [GL-213]
- loss of cell viability in combination with Adriamycin versus Adriamycin alone (MDA-MB-468 TNBC cells): loss of cell viabilities that were greater

Compound: O=C(CSc1nc(-c2ccccc2)cs1)c1ccc(O)c(O)c1 [GL-216]
- loss of cell viability in combination with Adriamycin versus Adriamycin alone (MDA-MB-468 TNBC cells): loss of cell viabilities that were greater

Compound: Cc1ccc(-n2cnnc2[S+]([O-])CC(=O)c2ccc(O)c(O)c2)cc1 (stereo not shown) [GL-209]
- loss of cell viability in combination with Adriamycin versus Adriamycin alone (MDA-MB-468 TNBC cells): loss of cell viabilities that were greater

Compound: Cc1ccc(-n2ccnc2SCC(=O)c2ccc(O)c(O)c2)cc1 [GL-211]
- loss of cell viability in combination with Adriamycin versus Adriamycin alone (MDA-MB-468 TNBC cells): minimal reduction in cell viabilities

Compound: HRPEETHKGRTVPAHVETVVLFFPDVWHCL [CARP-1 (551-580)]
- Kd (NEMO (221-260) peptide; chemically synthesized peptides, read-out: equilibrium dissociation constant (KD Value)): 0.102 µM
- kon (NEMO (221-260) peptide; read-out: Ka (association rate constant)): 2070 M⁻¹ s⁻¹
- koff (NEMO (221-260) peptide; read-out: Kd (dissociation rate constant)): 0.000212 s⁻¹

Compound: Cc1ccc(-n2ccnc2[S+]([O-])CC(=O)c2ccc(O)c(O)c2)cc1 (stereo not shown) [GL-212]
- loss of cell viability in combination with Adriamycin versus Adriamycin alone (MDA-MB-468 TNBC cells): moderate reduction in cell viabilities

Compound: Cc1ccc(-n2cnnc2SCC(=O)c2ccc(O)c(O)c2)cc1 [GL-208]
- loss of cell viability in combination with Adriamycin versus Adriamycin alone (MDA-MB-468 TNBC cells): minimal reduction in cell viabilities

Compound: O=C(CSc1nc2ccccc2s1)c1ccc(O)c(O)c1 [GL-215]
- loss of cell viability in combination with Adriamycin versus Adriamycin alone (MDA-MB-468 TNBC cells): moderate reduction in cell viabilities
